In test [1] the test system is HIV-1 Bal (B, R5). Nature of the test: Inactivation of cell-free virus, PEG 6000 precipitation, TZM-bl cells, luciferase. It counts as cell-based. The conditions noted are these: FIG. 18, luciferase. The method, then: (§1) Briefly, HIV-1 isolate (500 TCID50/ml) was added to 100 μl of the samples with different concentration and incubate on 4° C. for 1 hour. Then, PEG 6000 was added to the final concentration of 3% and centrifuge on a microfuge at 15,000 rpm for 30 min. The supernatants were removed, and the pellet was washed with PBS and resuspended to 100 μl. MT-2 or TZM-bl cells (1×10^5/ml) were added at 100 μl/well, and cultured at 37° C. for 3 days. p24 production in MT-2 or luciferase activity was determined according to kit manufacturer' instruction.

The test system of the next test is 94UG103 (A, X4R5). It counts as cell-based, HIV-1. The procedure:
(§2) The inhibitory activity of the bifunctional molecule on infection by primary HIV-1 isolates, 92US657 (B, R5), 94UG103 (A, X4R5), 93MW959 (C, R5), RU570 (G, R5) and 92TH009 (E/A, R5) was determined (Jiang S et al. Antimicrob Agents Chemother 48:4349-4359, 2004). Briefly, peripheral blood mononuclear cells (PBMCs) were isolated from the blood of healthy donors using a standard density gradient (Histopaque-1077, Sigma) centrifugation. After incubation at 37° C. for 2 hr, the nonadherent cells were collected and resuspended at 5×10^5/ml in RPMI 1640 medium containing 10% FBS, 5 μg of phytohemagglutinin (PHA)/ml, and 100 U of IL-2/ml, followed by incubation at 37° C. for 3 days. The PHA-stimulated cells were infected with the corresponding primary HIV-1 isolates at a multiplicity of infection (MOI) of 0.01 in the absence or presence of antisera at a serial 2-fold dilution. The supernatants were collected 7 days post-infection and tested for p24 antigen by ELISA as described above. The IC50 was calculated using the […]™ software as described above.

The next test concerns 92US657 (B, R5). In kind it is cell-based, HIV-1. The procedure: as §2
The subject of another test is 93MW959 (C, R5). It counts as cell-based, HIV-1. The procedure:
as §2

In a further test the test system is RU570 (G, R5). In kind it is cell-based, HIV-1. The procedure: as §2
The test system of test [2] is HIV-1 IIIB chronically infected H9 cells / MT-2 cells. It counts as cell-based. The method, then:
HIV-1-mediated cell-cell fusion was determined by a dye transfer assay (Lu H et al. J Virol Methods 107:155-161, 2003.) using Calcein AM-labeled HIV-1IIIB chronically infected H9 (H9/HIV-1 IIIB) cells as effector cells and MT-2 cells as target cells.

For test [3], the system named is HIV-1 IIIB (B, X4). The method, then:
The inhibitory activity of the bifunctional molecule on HIV-1 IIIB infection was determined by ELISA for p24 production (Jiang S et al. J Exp Med 174:1557-1563, 1991). Briefly, MT-2 cells were infected with HIV-1IIIB at 100 TCID50 (50% tissue culture infective dose) in RPMI 1640 medium containing 10% FBS in the presence or absence of an antigen specific antiserum or IgG antibody in serial 2-fold dilutions at 37° C. overnight. The culture supernatants were then removed and fresh media were added. On day 4 post-infection, the culture supernatants were collected and mixed with equal volumes of 5% TRITON™ X-100 for the detection in the p24 protein ELISA.

Test [4] has as its system HIV-1 IIIB (B, X4). Nature of the test: Inactivation of cell-free virus, PEG 6000 precipitation, MT-2 cells, p24. It counts as cell-based. The conditions noted are these: FIG. 17, MT-2 cells. The method, then: as §1
Test [5] has as its system HIV-1 Bal (B, R5). It counts as cell-based. The method, then: The cells were harvested and lysed on the fourth day post-infection with 50 μl of lysing reagent. The luciferase activity was analyzed using a luciferase kit (Promega) and a luminometer (Ultra 386, Tecan) according to the manufacturer's instruction. The percent inhibition of luciferase activity was calculated.

In another test the test system is 92TH009 (E/A, R5). Nature of the test: Primary HIV-1 isolate infection of PBMCs, p24 ELISA. In kind it is cell-based. The method, then:
as §2
In general terms: An ELISA detects its analyte on a solid surface through an enzyme-linked reagent.

Consider enfuvirtide, for which the “virus inactivation activity, HIV-1 Bal” value in the test on HIV-1 Bal (B, R5) [1] is “no significant effects on virus”. Besides, the IC50 with 94UG103 (A, X4R5) came to 6.67 nM; in the test with 92US657 (B, R5) it was 56.1 nM; in the test on 93MW959 (C, R5), 4.7 nM; in the test on RU570 (G, R5) it was 44.1 nM; in [2], 20.1 nM; in the test with HIV-1 IIIB (B, X4) [3], 17.3 nM. The IC50 came out at 43.4 nM in the test on HIV-1 Bal (B, R5) [5] and 1.43 nM in the test with 92TH009 (E/A, R5) (read-out: IC50, HIV-1 replication 92TH009 (E/A, R5)). Moreover, the IC90 in the test on 94UG103 (A, X4R5) worked out at 29.4 nM; in the test on 92US657 (B, R5), 224 nM; with 93MW959 (C, R5) it was 18.8 nM; in the test with RU570 (G, R5), 110 nM; in test [2], 41.7 nM; with HIV-1 IIIB (B, X4) [3], 117 nM. The IC90 with HIV-1 Bal (B, R5) [5] was more than 250 nM; in the test on 92TH009 (E/A, R5) (read-out: IC90, HIV-1 replication 92TH009 (E/A, R5)), 7.99 nM. Further, in the test on HIV-1 IIIB (B, X4) [4], the “virus inactivation activity, HIV-1 IIIB” value is “no significant effects on virus”.

(Values after patent US8828932B2, “Bifunctional molecules for inactivating HIV and blocking HIV entry” (New York Blood Center, Inc., priority 2010, dated 2014).)
